Patent US6756480B2, “Modulators of receptors for parathyroid hormone and parathyroid hormone-related protein” (Amgen Inc., priority 2000, dated 2004)
Where two headings read alike, the source gives them in different places. No end group written: not given here.

Key:
OVX rats = conditions: cited from earlier work
mice [1] = test: Mouse bioassay: SC injection days 0, 5, 10; clinical chemistry (calcium, AP, TRAP) and tibial pQCT; type: in vivo; conditions: for serum TRAP (osteoclast marker) / calcemic potency among the 3 Fc peptides: mice; for serum TRAP (osteoclast marker): after single SC injection; for calcemic potency among the 3 Fc peptides: serum calcium
Method: Peripheral blood was obtained daily for 3 days following single subcutaneous injections of the indicated compounds.
Peripheral quantitative computed tomography (pQCT) was performed on the proximal tibial metaphysis of mice on day 15, after injections of PTH constructs on day 0, 5 and 10.
We then tested the effects of PTH-(1-34), PTH-(1-34)-Fc, PTH-(1-31)-Fc and PTH-(1-30)-Fc in mice. Four week old male mice were injected on days 0, 5, and 10 with vehicle or with PTH fragments, by SC injection. Peripheral blood was obtained for clinical chemistry at 24, 48, and 72 h. Mice were killed on day 15, vertebrae, tibiae and femurs were harvested for histology and one tibia was collected for bone density measurements (peripheral quantitative computed tomography, pQCT). Clinical chemistry endpoints included total serum calcium, serum alkaline phosphatase (AP, a marker of osteoblast activity), and serum tartrate-resistant acid phosphatase (TRAP, a marker of osteoclast activity). For each animal, the ratio of AP:TRAP was calculated as an index of relative osteoblast activity compared to osteoclast activity. A higher AP:TRAP ratio would indicate a potentially more anabolic agent.

PTH-1 receptor = target: T1, PTH-1 receptor (Homo sapiens, UniProt Q03431); conditions: cited from earlier work
T1 sequence (Q03431 27-593): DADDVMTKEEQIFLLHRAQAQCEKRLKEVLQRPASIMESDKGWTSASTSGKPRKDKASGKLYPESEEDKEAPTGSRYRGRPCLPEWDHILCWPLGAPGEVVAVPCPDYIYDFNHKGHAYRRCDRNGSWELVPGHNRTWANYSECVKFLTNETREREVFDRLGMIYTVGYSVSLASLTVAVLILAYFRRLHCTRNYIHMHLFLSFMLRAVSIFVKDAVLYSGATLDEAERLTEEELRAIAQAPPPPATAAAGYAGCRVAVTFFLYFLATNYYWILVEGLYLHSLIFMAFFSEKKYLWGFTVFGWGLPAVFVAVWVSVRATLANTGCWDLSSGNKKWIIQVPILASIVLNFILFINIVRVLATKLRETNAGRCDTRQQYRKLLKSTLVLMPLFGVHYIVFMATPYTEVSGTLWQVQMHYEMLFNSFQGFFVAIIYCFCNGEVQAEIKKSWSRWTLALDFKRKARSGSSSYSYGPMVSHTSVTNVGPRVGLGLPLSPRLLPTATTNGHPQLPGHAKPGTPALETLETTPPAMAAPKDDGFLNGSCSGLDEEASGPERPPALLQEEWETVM

rat PTH-1 receptor = target: T2, rat PTH-1 receptor (Rattus norvegicus, UniProt P25961); conditions: cited from earlier work
T2 sequence (P25961 27-591): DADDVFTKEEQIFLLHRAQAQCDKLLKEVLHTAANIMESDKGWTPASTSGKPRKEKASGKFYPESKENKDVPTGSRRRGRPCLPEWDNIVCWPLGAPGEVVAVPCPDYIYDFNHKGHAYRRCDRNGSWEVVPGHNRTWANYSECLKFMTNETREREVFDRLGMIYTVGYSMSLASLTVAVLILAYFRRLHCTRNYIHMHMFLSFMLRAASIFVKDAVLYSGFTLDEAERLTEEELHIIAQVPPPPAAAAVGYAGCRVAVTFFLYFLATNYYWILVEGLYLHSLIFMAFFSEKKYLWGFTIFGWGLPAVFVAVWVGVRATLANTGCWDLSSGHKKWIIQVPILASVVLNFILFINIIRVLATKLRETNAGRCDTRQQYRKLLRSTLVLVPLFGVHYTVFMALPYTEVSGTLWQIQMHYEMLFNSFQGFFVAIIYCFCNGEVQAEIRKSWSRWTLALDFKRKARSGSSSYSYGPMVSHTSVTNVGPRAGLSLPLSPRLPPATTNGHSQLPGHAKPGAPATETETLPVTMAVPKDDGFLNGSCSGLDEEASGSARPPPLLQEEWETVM

healthy humans = conditions: infusion, unlike PTH-(1-34); cited from earlier work
mice [2] = test: Acute hypercalcemia induced by PTHrP-(1-34) challenge, antagonist given SC, blood ionized calcium; type: in vivo; conditions: 0.5 mg/kg SC, vehicle-treated mice
Method: Normal male mice were injected SC with vehicle (PBS, circles) or with human PTHrP-(1-34) at 0.5 mg/kg (squares). PTHrP-challenged mice were then immediately injected SC with [Asn10,Leu11]PTHrP-(7-34)-Fc at 10 mg/kg (triangles) or 30 mg/kg (diamonds). Data represent group means, with an n of 6 mice/group.
We have cloned, expressed and purified [Asn10,Leu11]PTHrP-(7-34)-Fc. We tested the ability of this compound to antagonize both acute and chronic hypercalcemia responses in mice. PTHrP-(1-34) was used as a calcemic agent to evaluate the acute effects of [Asn10,Leu11]PTHrP-(7-34)-Fc. Because PTHrP is the principal mediator of HHM, this study also represents a model for hypercalcemia-inducing tumors. Briefly, blood ionized calcium (BIC) was measured at baseline, and mice were then challenged with vehicle (PBS) or with PTHrP-(1-34) (0.5 mg/kg) by SC injection. Mice were then treated once SC with varying doses of [Asn10,Leu11]PTHrP-(7-34)-Fc, or with vehicle (PBS). In vehicle-treated mice challenged with PTHrP-(1-34), a transient hypercalcemic response was observed. The peak calcemic response occurred at 3 h post challenge, and persisted until at least 6 h post challenge.

[3] = in vivo, circulating; cited from earlier work
[4] = test system: aged ovariectomized (OVX) rats; test: Monotherapy in aged ovariectomized (OVX) rats: twice-weekly treatment, BMD by DEXA and serum calcium; type: in vivo
Method: Eleven months after OVX, rats were treated twice per week with phosphate-buffered saline (PBS, vehicle) or with APD (0.5 mg/kg) or with PTH-(1-34)-Fc (50 nmol/kg). DEXA was performed weekly. Blood was drawn 24 hours after the second weekly injection, when the calcemic effects of PTH-Fc are typically maximal. The effects of PTH-Fc administration on lumbar BMD (FIG. 11A), tibia/femur BMD (FIG. 11B), femoral metaphysis BMD (FIG. 11C), and serum calcium (FIG. 11D) were determined.
Sprague Dawley rats were OVX'd at 3 months of age and allowed to lose bone for 11 months. Other rats were sham-operated and treated twice per week with vehicle (PBS). OVX rats were treated twice per week with SC injections of either vehicle or the bisphosphonate APD (pamidronate, 0.5 mg/kg), or with PTH-(1-34)-Fc (50 nmol/kg) or with APD+PTH-(1-34)-Fc. BMD was determined weekly via dual energy X-ray absorptiometry (DEXA). Rats were sacrificed after 4 weeks of treatment. At the start of treatment, OVX rats had significant reductions in BMD at all skeletal sites analyzed, compared to vehicle-treated […] (FIG. 11, p<0.05, 2-way ANOVA).

[5] = 100 nmoles/kg on day 0, 5, 10, pQCT day 15

Molecule: human PTH(1-28) (SVSEIQLMHNLGKHLNSMERVEWLRKKL; listed as Homo sapiens) [PTH-(1-28)]
- anabolic effect (OVX rats; 200 μg/kg/day): ineffective
- anabolic effect (OVX rats; 1,000 μg/kg/day): anabolic

Molecule: PTH-(1-31)-Fc: PTH (1-31), SVSEIQLMHNLGKHLNSMERVEWLRKKLQDV, linked at its C-terminus to an Fc domain
- bone mineral density (proximal tibial metaphysis) (mice [1]; [5]): no effect
- serum AP (osteoblast marker) (mice [1]; 300 nmoles/kg (given for PTH-(1-34)-Fc), 72 h): significantly elevated
- calculated AP:TRAP ratio (mice [1]; high dose 1,000 nmoles/kg): decreased
- toxicity (mice [1]; higher doses 300-1,000 nmoles/kg): significant hypercalcemia-related toxicity
- calculated AP:TRAP ratio (mice [1]; low dose 100 nmoles/kg): increased
- serum TRAP (osteoclast marker) (mice [1]): dramatically increased
- calcemic potency among the 3 Fc peptides (mice [1]): more potent calcemic agent

Molecule: human PTH(1-30) (SVSEIQLMHNLGKHLNSMERVEWLRKKLQD; listed as Homo sapiens) [hPTH-(1-30)]
- reduction of affinity for PTH-1 receptor compared to hPTH-(1-34) (PTH-1 receptor): 10-100 fold
- PLC activation (rat PTH-1 receptor): weak and incomplete agonist

Molecule: human PTH(1-31) [hPTH-(1-31)]
- reduction of affinity for PTH-1 receptor compared to hPTH-(1-34) (PTH-1 receptor): 1-6 fold
- serum calcium, plasma 1,25(OH)2D3, urinary N-TX levels (healthy humans): failed to elevate

Molecule: human PTHrP(1-34) [PTHrP-(1-34)]
- persistence of calcemic response post challenge (mice [2]): at least 6 h
- time of peak calcemic response post challenge (mice [2]): 3 h

Molecule: Parathyroid hormone [PTH]
- half-life [3]: less than 1 h

Molecule: PTH-(1-30)-Fc: PTH (1-30), SVSEIQLMHNLGKHLNSMERVEWLRKKLQD, linked at its C-terminus to an Fc domain (SVSEIQLMHNLGKHLNSMERVEWLRKKLQD-{Fc domain})
- serum calcium (mice [1]; 100 nmoles/kg): failed to significantly increase serum calcium
- bone mineral density (proximal tibial metaphysis) (mice [1]; [5]): greatest effect
- serum AP (osteoblast marker) (mice [1]; 1,000 nmoles/kg): greatest elevation
- time of peak serum AP after injection (mice [1]; 1,000 nmoles/kg): 72 h
- bone mineral density (proximal tibial metaphysis) (mice [1]; 1,000 nmoles/kg on day 0, 5, 10, pQCT day 15): least effect
- BMD versus controls (mice [1]; all doses (100-1,000 nmoles/kg), pQCT day 15): greater than in controls
- calculated AP:TRAP ratio (mice [1]; high dose 1,000 nmoles/kg): greatest increase
- serum TRAP (osteoclast marker) (mice [1]): not significantly changed
- calcemic potency among the 3 Fc peptides (mice [1]): least calcemic
- increase in bone density compared with the other PTH constructs (mice [1]; pQCT day 15): greatest increase in bone density

Molecule: NCCC(O)(P(=O)(O)O)P(=O)(O)O [APD, pamidronate, reference compound]
- BMD at any skeletal site compared to vehicle-treated OVX rats ([4]; 0.5 mg/kg twice per week): did not significantly increase BMD
- effect of co-administration on calcemic effect of PTH-(1-34)-Fc ([4]; APD 0.5 mg/kg co-administered): completely blocked the calcemic effect
